# Calls of active or inactive are those of the source. No cut-off for these calls is given here. Numbered stars: 1 amine (or outer) side, 2 acyl side, 3 side chain; on linkers, the order of the positions; unused ones are H or OH. Square brackets hold non-standard residues; d marks the D form. Peptide text beside a SMILES is read from it. * marks the point of attachment. X1 = N#Cc1cnc2ccc(-c3c(-c4ccc(F)c(Cl)c4)ncn3CCOCN*)nn12; C18 diacid = O=C(O)CCCCCCCCCCCCCCCCC(=O)*; γGlu = O=C(O)[C@H](CCC(=O)[*:2])N[*:1]; PABC = O=C(OCc1ccc(N[*:1])cc1)[*:2]; AEEA = NCCOCCOCC(=O)O
# How the values were obtained:
# [1] = Drug concentration in C57BL/6 mouse plasma at 6 mg/kg,iv and measured after 24 hrs by LC-MS/MS analysis; format: ADME, organism-based
# [2] = AUC in C57BL/6 mouse plasma at 6 mg/kg,iv and measured upto 24 hrs by LC-MS/MS analysis; format: ADME, organism-based; design: dose 6 mg/kg, time < 24 hrs, route iv
# [3] = Stability in mouse plasma assessed as parent compound remaining after 24 hrs by HPLC-MS analysis; format: ADME, cell-free; settings: read-out: Stability
# [4] = Stability in rat plasma assessed as parent compound remaining after 24 hrs by HPLC-MS analysis; format: ADME, cell-free; settings: read-out: Stability
# [5] = Prodrug conversion in blood of C57BL/6 mouse xenografted mouse MC38 cells assessed as BMS-986260 Cmax at 8 mg/kg,iv and measured after 72 hrs by LC-MS/MS analysis; format: ADME, organism-based, MC-38; design: dose 8 mg/kg, time 72 hrs, route iv; settings: in vivo
# [6] = Prodrug conversion in heart of C57BL/6 mouse xenografted mouse MC38 cells assessed as BMS-986260 Cmax at 8 mg/kg,iv and measured after 72 hrs by LC-MS/MS analysis; format: ADME, organism-based, MC-38; design: dose 8 mg/kg, time 72 hrs, route iv; settings: in vivo
# [7] = Prodrug conversion in tumor of C57BL/6 mouse xenografted mouse MC38 cells assessed as BMS-986260 Cmax at 8 mg/kg,iv and measured after 72 hrs by LC-MS/MS analysis; format: ADME, organism-based, Neoplasm, MC-38; design: dose 8 mg/kg, time 72 hrs, route iv; settings: in vivo
# [8] = Prodrug conversion in blood of C57BL/6 mouse xenografted mouse MC38 cells assessed as BMS-986260 Tmax at 8 mg/kg,iv and measured after 72 hrs by LC-MS/MS analysis; format: ADME, organism-based, MC-38; settings: in vivo
# [9] = Prodrug conversion in heart of C57BL/6 mouse xenografted mouse MC38 cells assessed as BMS-986260 Tmax at 8 mg/kg,iv and measured after 72 hrs by LC-MS/MS analysis; format: ADME, organism-based, MC-38; settings: in vivo
# [10] = Prodrug conversion in tumor of C57BL/6 mouse xenografted mouse MC38 cells assessed as BMS-986260 Tmax at 8 mg/kg,iv and measured after 72 hrs by LC-MS/MS analysis; format: ADME, organism-based, Neoplasm, MC-38; settings: in vivo
# [11] = Prodrug conversion in blood of C57BL/6 mouse xenografted mouse MC38 cells assessed as BMS-986260 AUC (0 to 72 hrs) at 8 mg/kg,iv and measured after 72 hrs by LC-MS/MS analysis; format: ADME, organism-based, MC-38; design: time 72 hrs, dose 8 mg/kg, route iv; settings: in vivo
# [12] = Prodrug conversion in heart of C57BL/6 mouse xenografted mouse MC38 cells assessed as BMS-986260 AUC (0 to 72 hrs) at 8 mg/kg,iv and measured after 72 hrs by LC-MS/MS analysis; format: ADME, organism-based, MC-38; design: time 72 hrs, dose 8 mg/kg, route iv; settings: in vivo
# [13] = Prodrug conversion in tumor of C57BL/6 mouse xenografted mouse MC38 cells assessed as BMS-986260 AUC (0 to 72 hrs) at 8 mg/kg,iv and measured after 72 hrs by LC-MS/MS analysis; format: ADME, organism-based, Neoplasm, MC-38; design: time 72 hrs, dose 8 mg/kg, route iv; settings: in vivo
# [14] = Prodrug conversion in C57BL/6 mouse xenografted mouse MC38 cells assessed as BMS-986260 ratio of AUC in heart to blood at 8 mg/kg,iv and measured after 72 hrs by LC-MS/MS analysis; format: ADME, organism-based, MC-38; settings: other tissue
# [15] = Prodrug conversion in blood of C57BL/6 mouse xenografted mouse MC38 cells assessed as BMS-986260 ratio of AUC in tumor to blood at 8 mg/kg,iv and measured after 72 hrs by LC-MS/MS analysis; format: ADME, organism-based, MC-38; settings: tumour
# [16] = Prodrug conversion in blood of C57BL/6 mouse xenografted mouse MC38 cells assessed as BMS-986260 ratio of AUC in tumor to heart at 8 mg/kg,iv and measured after 72 hrs by LC-MS/MS analysis; format: ADME, organism-based, MC-38; settings: in vivo
# [17] = Toxicity in C57BL/6 mouse at 80 mg/kg,iv; format: organism-based; settings: in vivo
# [18] = test system: MC-38; assay: Antitumor activity against mouse MC38 cells allografted in C57BL/6 mouse assessed as reduction in tumor volume at 40 to 80 mg/kg, iv for 4 weeks in presence of anti-PD-1 antibody; format: functional, organism-based; settings: dose 40-80 mg/kg
# [19] = AUC (0 to 24 hrs) in rat at 3 mg/kg,iv for 3 months; format: ADME, organism-based; design: time 3 months, dose 3 mg/kg, route iv; settings: in vivo
# [20] = AUC (0 to 72 hrs) in rat at 40 mg/kg,iv for 3 months; format: ADME, organism-based; design: time 3 months, dose 40 mg/kg, route iv; settings: in vivo
# [21] = AUC (0 to 72 hrs) in rat at 3 mg/kg,iv for 3 months; format: ADME, organism-based; design: dose 3 mg/kg, time 3 months, route iv; settings: in vivo
# [22] = Toxicity in rat assessed as mortality at 3 mg/kg,iv for 3 months; format: organism-based; settings: in vivo, 2190 h
# [23] = Tmax in C57BL/6 mouse tumor xenografted mouse MC38 cells at 1.88 mg/kg,iv and measured after 72 hrs by LC-MS/MS analysis; format: ADME, organism-based, Neoplasm, MC-38
# [24] = Tmax in C57BL/6 mouse heart xenografted mouse MC38 cells at 1.88 mg/kg,iv and measured after 72 hrs by LC-MS/MS analysis; format: ADME, organism-based, MC-38
# [25] = Tmax in C57BL/6 mouse blood xenografted mouse MC38 cells at 1.88 mg/kg,iv and measured after 72 hrs by LC-MS/MS analysis; format: ADME, organism-based, MC-38
# [26] = Ratio of AUC in tumor to heart in C57BL/6 mouse xenografted mouse MC38 cells at 1.88 mg/kg,iv and measured after 72 hrs by LC-MS/MS analysis; format: ADME, organism-based; settings: in vivo
# [27] = Ratio of AUC in tumor to blood in C57BL/6 mouse xenografted mouse MC38 cells at 1.88 mg/kg,iv and measured after 72 hrs by LC-MS/MS analysis; format: ADME, organism-based; settings: read-out: Ratio AUC
# [28] = Ratio of AUC in heart to blood in C57BL/6 mouse xenografted mouse MC38 cells at 1.88 mg/kg,iv and measured after 72 hrs by LC-MS/MS analysis; format: ADME, organism-based; settings: read-out: Ratio AUC
# [29] = AUC (0 to 72 hrs) in C57BL/6 mouse tumor xenografted mouse MC38 cells at 1.88 mg/kg,iv and measured after 72 hrs by LC-MS/MS analysis; format: ADME, organism-based, Neoplasm, MC-38; design: dose 1.88 mg/kg, time 72 hrs, route iv
# [30] = AUC (0 to 72 hrs) in C57BL/6 mouse heart xenografted mouse MC38 cells at 1.88 mg/kg,iv and measured after 72 hrs by LC-MS/MS analysis; format: ADME, organism-based, MC-38; design: time 72 hrs, dose 1.88 mg/kg, route iv
# [31] = AUC (0 to 72 hrs) in C57BL/6 mouse blood xenografted mouse MC38 cells at 1.88 mg/kg,iv and measured after 72 hrs by LC-MS/MS analysis; format: ADME, organism-based, MC-38; design: dose 1.88 mg/kg, time 72 hrs, route iv
# [32] = Cmax in C57BL/6 mouse tumor xenografted mouse MC38 cells at 1.88 mg/kg,iv and measured after 72 hrs by LC-MS/MS analysis; format: ADME, organism-based, Neoplasm, MC-38; design: dose 1.88 mg/kg, time 72 hrs, route iv
# [33] = Cmax in C57BL/6 mouse heart xenografted mouse MC38 cells at 1.88 mg/kg,iv and measured after 72 hrs by LC-MS/MS analysis; format: ADME, organism-based, MC-38; design: time 72 hrs, dose 1.88 mg/kg, route iv
# [34] = Cmax in C57BL/6 mouse blood xenografted mouse MC38 cells at 1.88 mg/kg,iv and measured after 72 hrs by LC-MS/MS analysis; format: ADME, organism-based, MC-38; design: time 72 hrs, dose 1.88 mg/kg, route iv
# [35] = AUC (0 to 72 hrs) in C57BL/6 mouse xenografted with mouse MC38 cells at 3.75 mg/kg,iv and measured after 4 weeks by LC-MS/MS analysis; format: ADME, organism-based, MC-38; design: dose 3.75 mg/kg, time 4 weeks, route iv; settings: in vivo
# [36] = Cmax in C57BL/6 mouse xenografted with mouse MC38 cells at 3.75 mg/kg,iv and measured after 4 weeks by LC-MS/MS analysis; format: ADME, organism-based, MC-38; design: dose 3.75 mg/kg, time 4 weeks, route iv; settings: in vivo
structure (smiles),measurement,setting,value
CC(C)C[C@H](NC(=O)COCCOCCNC(=O)COCCOCCNC(=O)CC[C@H](NC(=O)CC[C@H](NC(=O)CCCCCCCCCCCCCCCCC(=O)O)C(=O)O)C(=O)O)C(=O)N[C@@H](CO)C(=O)NCC(=O)N[C@@H](CCCCN)C(=O)Nc1ccc(COC(=O)NCOCCn2cnc(-c3ccc(F)c(Cl)c3)c2-c2ccc3ncc(C#N)n3n2)cc1 ({C18 diacid-γGlu-γGlu-AEEA-AEEA}-LSGK[PABC]-X1),concentration at 24 h,[1],5200 nM
same,AUC at 24 h,[2],270 µM·h
same,remaining at 24 h,[3],92%
same,remaining at 24 h,[4],87%
same,Cmax,[5],120 nM
same,Cmax,[6],200 nM
same,Cmax,[7],310 nM
same,Tmax,[8],1 h
same,Tmax,[9],8 h
same,Tmax,[10],1 h
same,AUC,[11],3.9 µM·h
same,AUC,[12],6.7 µM·h
same,AUC,[13],12 µM·h
same,Ratio AUC,[14],1.7
same,Ratio AUC,[15],3.1
same,Ratio AUC,[16],1.8
same,Activity,[17],Non-Toxic
same,Activity,[18],Active
same,AUC(0-t) at 2190 h,[19],27 µM·h
same,AUC(0-t) at 2190 h,[20],81 µM·h
same,AUC(0-t) at 2190 h,[21],15 µM·h
same,Activity,[22],Non-Toxic
N#Cc1cnc2ccc(-c3c(-c4ccc(F)c(Cl)c4)ncn3CCO)nn12,Tmax,[23],1 h
same,Tmax,[24],1 h
same,Tmax,[25],1 h
same,Ratio AUC,[26],0.61
same,Kp at 72 h,[27],1.1
same,Kp at 72 h,[28],1.7
same,AUC(0-t) at 72 h,[29],6.1 µM·h
same,AUC(0-t) at 72 h,[30],10 µM·h
same,AUC(0-t) at 72 h,[31],5.8 µM·h
same,Cmax,[32],1500 nM
same,Cmax,[33],2500 nM
same,Cmax,[34],1400 nM
same,AUC(0-t) at 672 h,[35],39 µM·h
same,Cmax,[36],1500 nM
same,AUC(0-t) at 2190 h,[19],27 µM·h
